Assay results reported in patent US20050054708A1, “Combinations of drugs for the treatment of neoplasms” (priority 2003, published 2005).
Where two headings read alike, the source gives them in different places.

How the values were obtained:
A549 cells = assay: Anti-proliferation assay (Alamar Blue metabolism);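 note: 384-well plates, 72–80 h exposure at 37 °C, Alamar Blue fluorescence (ex 530 nm) read 3.5–5 h after dye addition, inhibition relative to mean of vehicle-only wells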
Experimental: Human non-small cells lung carcinoma cells A549 (ATCC# CCL-185), were grown at 37±0.5° C. and 5% CO2 in DMEM supplemented with 10% FBS, 2 mM glutamine, 1% penicillin, and 1% streptomycin.
Stock solutions (1000×) of each compound were prepared in DMSO and stored at −20° C. Master stock plates of 2-fold or 4-fold serial dilutions of individual compounds were prepared in 384-well plates. Combination matrices of test compounds were generated from these master stock plates by dilution into growth media described above. […] The combination matrices were used immediately and discarded.
The anti-proliferation assays were performed in 384-well plates. 6.6 μL of 10× stock solutions from the combination matrices were added to 40 μL of culture media in assay wells. The tumor cells were liberated from the culture flask using a solution of 0.25% trypsin. Cells were diluted in culture media such that 3000 or 6000 cells were delivered in 20 μL of media into each assay well. Assay plates were incubated for 72-80 hours at 37° C. ±0.5° C. with 5% CO2. Twenty microliters of 20% Alamar Blue warmed to 37° C. ±0.5° C. was added to each assay well following the incubation period. Alamar Blue metabolism was quantified by the amount of fluorescence intensity 3.5-5.0 hours after addition. Quantification, using an LJL Analyst AD reader (LJL Biosystems), was taken in the middle of the well with high attenuation, a 100 msec read time, an excitation filter at 530 nm, and an emission filter at 575 nm. For some experiments, quantification was performed using a Wallac Victor^2 reader. Measurements were taken at the top of the well with stabilized energy lamp control; a 100 msec read time, an excitation filter at 530 nm, and an emission filter at 590 nm.
The percent inhibition (% I) for each well was calculated using the following formula: % I=[(avg. untreated wells−treated well)/(avg. untreated wells)]×100 The average untreated well value (avg. untreated wells) is the arithmetic mean of 40 wells from the same assay plate treated with vehicle alone.
Inhibition of proliferation was measured by anti-proliferation assay as described below after incubation with the test compound(s) for 72 hours.

[1] = cited from earlier work

Compound: O=c1[nH]cc(F)c(=O)[nH]1 [5-Fluorouracil, 5-fluorouracil]
- inhibition at 0.01 µM (A549 cells; Homo sapiens, A549, read-out: Percent inhibition of Alamar Blue Metabolism, 5-fluorouracil 0.01 μM alone): 2.9%
- inhibition at 0.1 µM (A549 cells; Homo sapiens, A549, read-out: Percent inhibition of Alamar Blue Metabolism, 5-fluorouracil 0.10 μM alone): -0.5%
- inhibition at 0.5 µM (A549 cells; Homo sapiens, A549, read-out: Percent inhibition of Alamar Blue Metabolism, 5-fluorouracil 0.50 μM alone): 40.6%
- inhibition at 0.75 µM (A549 cells; Homo sapiens, A549, read-out: Percent inhibition of Alamar Blue Metabolism, 5-fluorouracil 0.75 μM alone): 64.3%
- inhibition at 1 µM (A549 cells; Homo sapiens, A549, read-out: Percent inhibition of Alamar Blue Metabolism, 5-fluorouracil 1.00 μM alone): 75.4%
- inhibition at 1.5 µM (A549 cells; Homo sapiens, A549, read-out: Percent inhibition of Alamar Blue Metabolism, 5-fluorouracil 1.50 μM alone): 73.6%
- inhibition at 2 µM (A549 cells; Homo sapiens, A549, read-out: Percent inhibition of Alamar Blue Metabolism, 5-fluorouracil 2.00 μM alone): 87.2%
- inhibition at 5 µM (A549 cells; Homo sapiens, A549, read-out: Percent inhibition of Alamar Blue Metabolism, 5-fluorouracil 5.00 μM alone): 79.8%
- inhibition at 10 µM (A549 cells; Homo sapiens, A549, read-out: Percent inhibition of Alamar Blue Metabolism, 5-fluorouracil 10.00 μM alone): 82.4%

Compound: CC[C@]1(O)C[C@@H]2CN(CCc3c([nH]c4ccccc34)[C@@](C(=O)OC)(c3cc4c(cc3OC)N(C)[C@H]3[C@@](O)(C(=O)OC)[C@H](OC(C)=O)[C@]5(CC)C=CCN6CC[C@]43[C@@H]65)C2)C1 [Vinblastine, vinblastine]
- inhibition at 0.0001 µM (A549 cells; Homo sapiens, A549, read-out: Percent inhibition of Alamar Blue Metabolism, vinblastine 0.0001 μM alone): -22.3%
- inhibition at 0.0002 µM (A549 cells; Homo sapiens, A549, read-out: Percent inhibition of Alamar Blue Metabolism, vinblastine 0.0002 μM alone): -8.3%
- inhibition at 0.0004 µM (A549 cells; Homo sapiens, A549, read-out: Percent inhibition of Alamar Blue Metabolism, vinblastine 0.0004 μM alone): 7.4%
- inhibition at 0.0008 µM (A549 cells; Homo sapiens, A549, read-out: Percent inhibition of Alamar Blue Metabolism, vinblastine 0.0008 μM alone): 41.5%
- inhibition at 0.0016 µM (A549 cells; Homo sapiens, A549, read-out: Percent inhibition of Alamar Blue Metabolism, vinblastine 0.0016 μM alone): 48.4%
- inhibition at 0.0031 µM (A549 cells; Homo sapiens, A549, read-out: Percent inhibition of Alamar Blue Metabolism, vinblastine 0.0031 μM alone): 61.1%
- inhibition at 0.0063 µM (A549 cells; Homo sapiens, A549, read-out: Percent inhibition of Alamar Blue Metabolism, vinblastine 0.0063 μM alone): 67.2%
- inhibition at 0.0125 µM (A549 cells; Homo sapiens, A549, read-out: Percent inhibition of Alamar Blue Metabolism, vinblastine 0.0125 μM alone): 77.2%
- inhibition at 0.025 µM (A549 cells; Homo sapiens, A549, read-out: Percent inhibition of Alamar Blue Metabolism, vinblastine 0.0250 μM alone): 85.5%

Compound: N=C(N)c1ccc(OCCCCCOc2ccc(C(=N)N)cc2)cc1 [Pentamidine isethionate, 4,4′-diamidino-diphenoxypentane di(β-hydroxyethanesulfonate)]
- solubility ([1]; in ether, acetone, and chloroform): insoluble
- solubility ([1]; in water and glycerin): soluble

Compound: COc1cccc2c1C(=O)c1c(O)c3c(c(O)c1C2=O)C[C@@](O)(C(=O)CO)C[C@@H]3O[C@H]1C[C@H](N)[C@H](O)[C@H](C)O1 [Doxorubicin, doxorubicin]
- inhibition at 0.0008 µM (A549 cells; Homo sapiens, A549, read-out: Percent inhibition of Alamar Blue Metabolism, doxorubicin 0.0008 μM alone): 32%
- inhibition at 0.0016 µM (A549 cells; Homo sapiens, A549, read-out: Percent inhibition of Alamar Blue Metabolism, doxorubicin 0.0016 μM alone): 27.5%
- inhibition at 0.0031 µM (A549 cells; Homo sapiens, A549, read-out: Percent inhibition of Alamar Blue Metabolism, doxorubicin 0.0031 μM alone): 34.4%
- inhibition at 0.0063 µM (A549 cells; Homo sapiens, A549, read-out: Percent inhibition of Alamar Blue Metabolism, doxorubicin 0.0063 μM alone): 40.3%
- inhibition at 0.0125 µM (A549 cells; Homo sapiens, A549, read-out: Percent inhibition of Alamar Blue Metabolism, doxorubicin 0.0125 μM alone): 55.6%
- inhibition at 0.025 µM (A549 cells; Homo sapiens, A549, read-out: Percent inhibition of Alamar Blue Metabolism, doxorubicin 0.0250 μM alone): 63.8%
- inhibition at 0.05 µM (A549 cells; Homo sapiens, A549, read-out: Percent inhibition of Alamar Blue Metabolism, doxorubicin 0.0500 μM alone): 67.5%
- inhibition at 0.1 µM (A549 cells; Homo sapiens, A549, read-out: Percent inhibition of Alamar Blue Metabolism, doxorubicin 0.1000 μM alone): 63%
- inhibition at 0.2 µM (A549 cells; Homo sapiens, A549, read-out: Percent inhibition of Alamar Blue Metabolism, doxorubicin 0.2000 μM alone): 62.9%

Compound: Nc1ccn([C@@H]2O[C@H](CO)[C@@H](O)C2(F)F)c(=O)n1 [Gemcitabine, gemcitabine]
- inhibition at 0.00016 µM (A549 cells; Homo sapiens, A549, read-out: Percent inhibition of Alamar Blue Metabolism, gemcitabine 0.00016 μM alone): 7.9%
- inhibition at 0.00033 µM (A549 cells; Homo sapiens, A549, read-out: Percent inhibition of Alamar Blue Metabolism, gemcitabine 0.00033 μM alone): 19.1%
- inhibition at 0.00066 µM (A549 cells; Homo sapiens, A549, read-out: Percent inhibition of Alamar Blue Metabolism, gemcitabine 0.00066 μM alone): 11.3%
- inhibition at 0.00131 µM (A549 cells; Homo sapiens, A549, read-out: Percent inhibition of Alamar Blue Metabolism, gemcitabine 0.00131 μM alone): 12.3%
- inhibition at 0.00263 µM (A549 cells; Homo sapiens, A549, read-out: Percent inhibition of Alamar Blue Metabolism, gemcitabine 0.00263 μM alone): 13.8%
- inhibition at 0.00525 µM (A549 cells; Homo sapiens, A549, read-out: Percent inhibition of Alamar Blue Metabolism, gemcitabine 0.00525 μM alone): 61.8%
- inhibition at 0.0105 µM (A549 cells; Homo sapiens, A549, read-out: Percent inhibition of Alamar Blue Metabolism, gemcitabine 0.01050 μM alone): 87.4%
- inhibition at 0.021 µM (A549 cells; Homo sapiens, A549, read-out: Percent inhibition of Alamar Blue Metabolism, gemcitabine 0.02100 μM alone): 88.7%
- inhibition at 0.042 µM (A549 cells; Homo sapiens, A549, read-out: Percent inhibition of Alamar Blue Metabolism, gemcitabine 0.04200 μM alone): 89.8%

Compound: COc1cc([C@@H]2c3cc4c(cc3[C@@H](O[C@@H]3O[C@@H]5CO[C@@H](C)O[C@H]5[C@H](O)[C@H]3O)[C@H]3COC(=O)[C@H]23)OCO4)cc(OC)c1O [Etoposide, etoposide]
- inhibition at 0.04 µM (A549 cells; Homo sapiens, A549, read-out: Percent inhibition of Alamar Blue Metabolism, etoposide 0.04 μM alone): 3.9%
- inhibition at 0.08 µM (A549 cells; Homo sapiens, A549, read-out: Percent inhibition of Alamar Blue Metabolism, etoposide 0.08 μM alone): 46.5%
- inhibition at 0.16 µM (A549 cells; Homo sapiens, A549, read-out: Percent inhibition of Alamar Blue Metabolism, etoposide 0.16 μM alone): 38.7%
- inhibition at 0.31 µM (A549 cells; Homo sapiens, A549, read-out: Percent inhibition of Alamar Blue Metabolism, etoposide 0.31 μM alone): 42.7%
- inhibition at 0.63 µM (A549 cells; Homo sapiens, A549, read-out: Percent inhibition of Alamar Blue Metabolism, etoposide 0.63 μM alone): 52.4%
- inhibition at 1.25 µM (A549 cells; Homo sapiens, A549, read-out: Percent inhibition of Alamar Blue Metabolism, etoposide 1.25 μM alone): 62.8%
- inhibition at 2.5 µM (A549 cells; Homo sapiens, A549, read-out: Percent inhibition of Alamar Blue Metabolism, etoposide 2.50 μM alone): 76.1%
- inhibition at 5 µM (A549 cells; Homo sapiens, A549, read-out: Percent inhibition of Alamar Blue Metabolism, etoposide 5.00 μM alone): 77.5%
- inhibition at 10 µM (A549 cells; Homo sapiens, A549, read-out: Percent inhibition of Alamar Blue Metabolism, etoposide 10.00 μM alone): 79.4%

Compound: N.N.O=C([O-])C1(C(=O)[O-])CCC1.[Pt+2] [Carboplatin, carboplatin]
- Percent inhibition of Alamar Blue Metabolism (A549 cells; carboplatin 0.15 μM alone): 5.5%
- Percent inhibition of Alamar Blue Metabolism (A549 cells; carboplatin 0.30 μM alone): 14.5%
- Percent inhibition of Alamar Blue Metabolism (A549 cells; carboplatin 0.59 μM alone): 9.8%
- Percent inhibition of Alamar Blue Metabolism (A549 cells; carboplatin 1.19 μM alone): −19.0%
- Percent inhibition of Alamar Blue Metabolism (A549 cells; carboplatin 2.38 μM alone): 13.9%
- Percent inhibition of Alamar Blue Metabolism (A549 cells; carboplatin 4.75 μM alone): 16.4%
- Percent inhibition of Alamar Blue Metabolism (A549 cells; carboplatin 9.50 μM alone): 35.8%
- Percent inhibition of Alamar Blue Metabolism (A549 cells; carboplatin 19.00 μM alone): 30.5%
- Percent inhibition of Alamar Blue Metabolism (A549 cells; carboplatin 38.00 μM alone): 48.7%
